# Article PMC5218480 (PLoS ONE, 2017)
# Where two headings read alike, the source gives them in different places.
# Legend:
# HDAC1 = target: T1, HDAC1 (Homo sapiens, UniProt Q13547); experiment: HDAC enzyme assay, in vitro biochemical
# T1 construct: purchased BPS Biosciences
# Experimental: (§1) In vitro biochemical assays were performed as described previously. Specifically, compounds were dissolved and diluted in assay buffer (50 mM HEPES, pH 7.4, 100 mM KCl, 0.001% Tween-20, 0.05% BSA, and 20 μM Tris (2-carboxyethyl) phosphine) to 6-fold the final concentration. […] The amount of substrate (acetyl-lysine tripeptide) used for each enzyme was equal to the Michaelis constant (Km), as determined by a titration curve. Substrate was diluted in assay buffer to 6-fold of the final concentration with 0.3 μM sequencing grade trypsin (Sigma-Aldrich). The substrate/trypsin mix was added to the enzyme/compound mix and the plate was shaken for 5 seconds and then placed into a SpectraMax M5 microtiter (Molecular Devices) plate reader. The enzymatic reaction was monitored over 30 minutes for release of […] after deacetylation of the lysine side chain in the peptide substrate, and the linear rate of the reaction was calculated.
# HDAC2 = target: T2, HDAC2 (Homo sapiens, UniProt Q92769); experiment: HDAC enzyme assay, in vitro biochemical
# T2 construct: purchased BPS Biosciences
# T2 sequence (Q92769 whole entry): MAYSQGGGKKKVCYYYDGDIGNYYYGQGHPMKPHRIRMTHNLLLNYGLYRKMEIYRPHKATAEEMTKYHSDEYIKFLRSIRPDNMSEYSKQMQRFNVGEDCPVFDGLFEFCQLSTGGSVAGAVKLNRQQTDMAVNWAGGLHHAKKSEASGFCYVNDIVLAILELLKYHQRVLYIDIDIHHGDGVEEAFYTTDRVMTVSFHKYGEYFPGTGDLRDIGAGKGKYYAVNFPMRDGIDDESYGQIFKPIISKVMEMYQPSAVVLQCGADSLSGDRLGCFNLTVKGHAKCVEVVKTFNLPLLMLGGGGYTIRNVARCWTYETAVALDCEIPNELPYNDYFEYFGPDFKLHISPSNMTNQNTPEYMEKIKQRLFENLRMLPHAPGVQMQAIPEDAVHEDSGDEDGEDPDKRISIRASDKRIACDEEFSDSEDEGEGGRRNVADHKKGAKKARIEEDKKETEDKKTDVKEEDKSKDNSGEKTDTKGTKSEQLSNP
# Experimental: as §1
# HDAC3 = target: T3, HDAC3 (Homo sapiens, UniProt O15379); experiment: HDAC enzyme assay, in vitro biochemical; conditions: pre-incubated 24 hours at 4°C; n = 3; read-out: IC50 against HDAC3
# T3 construct: purchased BPS Biosciences
# T3 sequence (O15379 whole entry): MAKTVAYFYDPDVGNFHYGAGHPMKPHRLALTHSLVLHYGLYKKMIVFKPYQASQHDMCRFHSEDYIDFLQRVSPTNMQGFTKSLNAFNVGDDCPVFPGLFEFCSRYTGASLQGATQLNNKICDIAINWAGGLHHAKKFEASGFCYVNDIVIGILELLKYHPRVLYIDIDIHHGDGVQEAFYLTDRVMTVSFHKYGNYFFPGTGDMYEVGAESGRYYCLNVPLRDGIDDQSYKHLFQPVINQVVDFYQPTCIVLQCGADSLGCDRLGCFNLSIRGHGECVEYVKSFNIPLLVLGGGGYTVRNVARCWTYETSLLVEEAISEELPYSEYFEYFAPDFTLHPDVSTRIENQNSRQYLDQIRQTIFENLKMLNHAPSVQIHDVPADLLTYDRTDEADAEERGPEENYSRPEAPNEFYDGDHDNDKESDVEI
# T3 sequence (Q9Y618 395-489 partner limits assumed): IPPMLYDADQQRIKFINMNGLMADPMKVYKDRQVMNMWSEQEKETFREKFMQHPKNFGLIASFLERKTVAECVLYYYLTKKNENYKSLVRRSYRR
# Experimental: as §1
# [1] = system: MV-4-11, Kasumi-1 and HL-60 cell lines; experiment: Histone acetylation by immunoblotting; assay type: cell-based, human; conditions: 24 hours, increasing doses
# Description: The EpiQuick Total Histone Extraction kit (Epigentek) was used to isolate histones. Histone lysates were size separated on Bolt 10% Bis-Tris gradient gels (Life Technologies), transferred to polyvinylidene difluoride membranes, blocked in 5% BSA, and detected using standard western blotting techniques.
# MV-4-11 and HL-60 cells [2] = experiment: Flow cytometry, surface level of CD11b (differentiation); assay type: cell-based, human; conditions: single agent, 72 hours
# Experimental: (§2) All compounds and/or solvent DMSO were added concurrently at the indicated doses. Flow cytometry was performed to measure surface level of CD11b, cell cycle distribution, and induction of apoptosis. CD11b and apoptosis were analyzed on a FC500 flow cytometer ([…]) and cell cycle profiled on an Attune NxT (Life Technologies).
# The frequency of CD11b positive cells out of total viable cells identified by forward and side scatter profile was quantified.
# MV-4-11 and HL-60 cells [3] = experiment: Flow cytometry, cell cycle (EdU, S phase); assay type: cell-based, human; conditions: single agent, 72 hours
# Experimental: as §2
# EdU labeled cells were then mixed with FxCycle Far Red Stain (Life Technologies) and 100 μg RNase A cocktail (Life technologies) for 30 minutes before flow cytometry analysis. Edu positive populations representing S phase cells were quantified.
# MV-4-11 and HL-60 cells [4] = experiment: Flow cytometry, apoptosis (Annexin V); assay type: cell-based, human; conditions: single agent, 96 hours
# Experimental: as §2
# Annexin V-positive populations were quantified.
# MV-4-11 and HL-60 cells [5] = experiment: Quantitative real time PCR (qPCR) of CDKN1A, CDKN1C, GATA2, HES1; assay type: cell-based, human; conditions: MV-4-11 and HL-60, 48 hours
# Experimental: RNA isolations were performed on a Qiacube (Qiagen) using the RNeasy Micro Kit (Qiagen) according to manufacturer’s protocol. RNA was converted to cDNA using the High Capacity RNA-to-cDNA Kit (Life Technologies) and qPCR performed using the Taqman Gene Expression Max Mix according to manufacturer’s protocol (Applied Bioscience). The following ThermoFisher taqman probes were used: GATA2 (Hs01060665_g1), GAPDH (Hs0275899_g1), ACTB (Hs00231119_m1), CDKN1A (Hs00355782_m1), CDKN1C (Hs00175938_m1), HES1 (Hs00172878_m1).
# [6] = system: live leukemic cells of fresh bone marrow samples from AML patients; conditions: read-out: mean IC50, proliferation of primary leukemic cells; 96 hours, n = 38 patient samples
# Kasumi-1 cells = experiment: Cell viability assay (CellTiter-Glo); conditions: read-out: IC50 cell viability Kasumi-1; 72 hours
# Experimental: (§3) MV-4-11, Kasumi-1, and HL-60 AML cell lines were all obtained from ATCC. MOLM-13 and NB-4 cell lines were obtained from DSMZ. […] The identity of each cell line was validated and documented by the suppliers. All experiments were performed with cells maintained at low passage numbers.
# (§4) Compounds and/or solvent dimethyl sulfoxide (DMSO) were added at the same time using an HP D300 digital dispenser (Hewlett Packard) in triplicate or quadruplicate and incubated for 72 hours at 37°C. Viability was measured by adding 25 μL CellTiter-Glo (Promega), incubating for 10 minutes, and measuring luminescence on a SpectraMax (Molecular Devices). […] CI < 1 indicates synergism, CI = 1 indicates additivity, and CI > 1 indicates antagonism.
# HL-60 cells = experiment: Cell viability assay (CellTiter-Glo); conditions: read-out: IC50 cell viability HL-60; 72 hours
# Experimental: as §3, §4
# NB-4 cells = experiment: Cell viability assay (CellTiter-Glo); conditions: read-out: IC50 cell viability NB-4; 72 hours
# Experimental: as §3
# Compounds and/or solvent dimethyl sulfoxide (DMSO) were added at the same time using an HP D300 digital dispenser (Hewlett Packard) in triplicate or quadruplicate and incubated for 72 hours at 37°C. Viability was measured by adding 25 μL CellTiter-Glo (Promega), incubating for 10 minutes, and measuring luminescence on a SpectraMax (Molecular Devices).
# [7] = system: five human AML cell lines (MV-4-11, Kasumi-1, HL-60, MOLM-13, NB-4); experiment: Cell viability assay, summary over five human AML cell lines; conditions: 72 hours
# Experimental: as §3, §4
# MV-4-11 cells = experiment: Cell viability assay (CellTiter-Glo), single agent and combination; conditions: read-out: IC50 cell viability MV-4-11; 72 hours
# Experimental: as §3, §4
# MOLM-13 cells = experiment: as above; conditions: read-out: IC50 cell viability MOLM-13; 72 hours
# Experimental: as §3, §4
# T1 sequence (Q13547 whole entry): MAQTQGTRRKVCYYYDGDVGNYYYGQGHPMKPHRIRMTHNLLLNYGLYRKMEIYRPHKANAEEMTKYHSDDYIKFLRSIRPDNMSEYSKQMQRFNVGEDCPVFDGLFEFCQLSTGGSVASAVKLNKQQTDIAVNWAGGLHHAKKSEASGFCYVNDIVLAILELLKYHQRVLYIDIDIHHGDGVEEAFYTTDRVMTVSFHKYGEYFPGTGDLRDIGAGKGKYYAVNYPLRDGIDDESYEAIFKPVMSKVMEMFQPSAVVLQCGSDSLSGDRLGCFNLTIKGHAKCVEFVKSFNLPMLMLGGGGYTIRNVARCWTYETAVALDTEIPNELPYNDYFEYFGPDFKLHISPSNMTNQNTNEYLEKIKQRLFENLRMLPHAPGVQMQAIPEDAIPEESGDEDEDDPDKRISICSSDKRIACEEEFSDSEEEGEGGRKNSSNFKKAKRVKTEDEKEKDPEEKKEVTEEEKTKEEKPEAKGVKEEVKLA
smiles,measurement,setting,value
Nc1ccc(-c2cccs2)cc1NC(=O)c1ccc2nc(N3CCNCC3)ccc2c1 [ACY-957],selectivity for HDAC1 over HDAC3,HDAC1,more than 150 fold
same,IC50,"HDAC1; pre-incubated 24 hours at 4°C, n = 3, read-out: IC50 against HDAC1",0.0072 µM
same,selectivity for HDAC2 over HDAC3,HDAC2,approximately 50 fold
same,IC50,"HDAC2; pre-incubated 24 hours at 4°C, n = 3, read-out: IC50 against HDAC2",0.026 µM
same,IC50,HDAC3,1.16 µM
same,acetylation on histone H2B lysine 5 (H2BK5ac) and histone H3 lysine 56 (H3K56ac),[1],dose-dependent accumulation
same,"differentiation, surface expression of CD11b",MV-4-11 and HL-60 cells [2],dose-dependent induction of differentiation
same,cells in S phase,MV-4-11 and HL-60 cells [3],dose-dependent reduction of cells in S phase
same,"apoptosis, staining for annexin V",MV-4-11 and HL-60 cells [4],increased staining for annexin V
same,"expression of CDKN1A, CDKN1C, GATA2 and HES1 (qPCR)",MV-4-11 and HL-60 cells [5],up-regulated
same,IC50,[6],1.1 µM
same,IC50,Kasumi-1 cells,1.6 µM
same,IC50,HL-60 cells,2.2 µM
same,IC50,NB-4 cells,1.6 µM
same,IC50,"[7]; read-out: IC50 values cell viability, range, five human AML cell lines, both compounds",0.8 to 3.3 µM
same,IC50,"[7]; read-out: average IC50 value, viability of AML cells, average of five AML cell lines",1.5 µM
same,IC50,MV-4-11 cells,0.8 µM
same,IC50,MOLM-13 cells,1.6 µM
